Results: PMC11587651, “Increased cytoplasmic expression of PETase enzymes in E. coli” (Microbial Cell Factories, 2024)

Target: T1, HiC (Mycothermus thermophilus, UniProt A0A075B5G4)
T1 construct: commercial enzyme Novozym 51032 (Strem), used as supplied
T1 sequence (A0A075B5G4 1-194): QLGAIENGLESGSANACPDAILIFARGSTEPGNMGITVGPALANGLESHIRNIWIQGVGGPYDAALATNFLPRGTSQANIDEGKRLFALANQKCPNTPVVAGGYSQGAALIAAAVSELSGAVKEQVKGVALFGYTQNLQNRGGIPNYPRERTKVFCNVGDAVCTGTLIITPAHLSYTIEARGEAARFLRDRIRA
Assay: HPLC of BHET to MHET conversion
Assay type: biochemical
Details: 24% acetonitrile, 76% 100 mM potassium phosphate pH 7, 40 °C, 0.1 g HiC per g BHET; product MHET

In the case of `O=C(OCCO)c1ccc(C(=O)OCCO)cc1` [bis(2-hydroxyethyl) terephthalic acid], the “HPLC of BHET to MHET conversion” value is reported as “enzymatic hydrolysis of BHET using Humicola insolens cutinase (HiC”.
